Read-outs that look alike come from different tables or passages of the source.
Tests used:
[1] = target: T1, ERα (Homo sapiens, UniProt P03372); assay: Estrogen receptor-alpha (ERα) degradation assay in MCF7 cells using In-Cell Western assay; format: cell-based; design: assessed for their activity in degrading ERα in MCF-7 cells via western blot; endogenous in cells; host or cells: MCF7 cells; settings: ER-alpha degradation in MCF7 cells, 5 days of incubation
T1 sequence (P03372 1-595): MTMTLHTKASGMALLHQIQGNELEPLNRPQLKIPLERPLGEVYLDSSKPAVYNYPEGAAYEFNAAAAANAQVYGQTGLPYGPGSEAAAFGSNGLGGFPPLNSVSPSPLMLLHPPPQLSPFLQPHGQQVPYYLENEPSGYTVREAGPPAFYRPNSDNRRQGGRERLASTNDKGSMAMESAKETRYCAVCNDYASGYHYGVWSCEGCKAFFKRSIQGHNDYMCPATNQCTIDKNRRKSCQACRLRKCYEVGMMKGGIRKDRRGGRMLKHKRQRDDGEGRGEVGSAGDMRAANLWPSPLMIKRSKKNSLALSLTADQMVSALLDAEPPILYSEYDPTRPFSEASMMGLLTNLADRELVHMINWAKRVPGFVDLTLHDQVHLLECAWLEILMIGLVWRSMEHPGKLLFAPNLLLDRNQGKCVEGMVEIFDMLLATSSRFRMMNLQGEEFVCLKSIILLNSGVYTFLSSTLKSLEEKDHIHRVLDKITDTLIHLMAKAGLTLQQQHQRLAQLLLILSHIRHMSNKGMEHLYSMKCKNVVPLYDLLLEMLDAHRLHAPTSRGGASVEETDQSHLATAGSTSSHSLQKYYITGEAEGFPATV
Description: Estrogen Receptor-Alpha (ERα) Degradation Assay Using in-Cell Western™ Assay for Table 5.
Degradation of ERα by claimed compounds were determined in MCF7 cells using an In-Cell Western™ assay. Briefly, MCF7 cells were plated in 96-well plates (2000 cells per well in 100 μl media) and incubated at 37° C. under an atmosphere of 5% CO2 in a humidified incubator overnight. One-hundred (100) μI of media containing test compound (at 2x concentration) was added to the appropriate wells to provide 11 serially decreasing concentrations (top final concentration, 1 μM then 3-fold less for the next 10 concentrations); a vehicle control (DMSO) was also added for each compound. For each experiment, all compounds were assayed on duplicate plates. Cells were then incubated for 3 or 5 days in the above-mentioned environment. The assay was terminated by removal of media, a single wash with ice-cold PBS and the addition of 50 μl paraformaldehyde (PFA: 4% in PBS). After 15 minutes in PFA at room temperature, the cells were permeabilized in Tris-phosphate-buffered saline with Tween (0.1%) (TBST) supplemented with Triton X-100 (0.5%) for 15 minutes. Cells were then blocked in BSA (TBST with BSA, 3%) for one hour. Primary antibodies for the detection of ERa (rabbit monoclonal, 1:1000, Cell Signaling Technology Catalog #8644) and tubulin (mouse monoclonal, 1:5000, Sigma Catalog #T6074) in TBST with BSA (3%) were added. The cells were incubated overnight at 4° C. The cells were then washed thrice with TBST at room temperature and then incubated with anti-rabbit and anti-mouse fluorescently-labelled secondary antibodies (IRDye®; LI-COR; Lincoln, Nebr.) in LI-COR blocking buffer (Catalog #927-50000) for one hour at room temperature. Following 3 washes with TBST, the buffer was removed and the plates were read on an Odyssey® infrared imaging system (LI-COR®, Lincoln, Nebr.) at 700 nm and 800 nm. Using commercial software (ImageStudio™; LI-COR, Lincoln, Nebr.), the staining intensity for ERa and tubulin in each well was quantified and exported for analysis. For each data point, ERa intensity was normalized to tubulin intensity and for each compound all normalized intensity values were normalized to the vehicle control. DC50 and Dmax values were determined following a 4-parameter IC50 curve fit using ACAS dose response module (McNeil & Co Inc.).

[2] = target: T1, ERα; assay: ERE luciferase reporter gene assay in T47D-KBluc cells (target engagement); format: cell-based; design: T47D human breast cancer cells stably transfected with estrogen responsive element/promoter/luciferase reporter gene; host or cells: T47D-KBluc cells; settings: 10% FBS, 24 hours, read-out: ER-α Luciferase IC50
Method in brief: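 T47D-KBluc breast cancer cells, which carry a stable ERE-luciferase reporter, were grown in RPMI with 10% FBS (about 10 pM estrogen) and exposed to PROTACs for 24 h. The 12-point, 3-fold series ran from 300 nM to 2 pM. Luciferase was read after lysis, and IC50 was fitted from duplicates.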

[3] = Table 3 cereblon centric PROTACs
[4] = Table 1 cereblon centric PROTACs

Work on `O=C1CCC(N2Cc3cc(NCCCOCCCOCCCOc4ccc(Oc5c(-c6ccc(Br)cc6)sc6cc(O)ccc56)cc4)ccc3C2=O)C(=O)N1` (centres unmarked) [Compound 94, 3-[5-[3-[3-[3-[4-[2-(4-bromophenyl)-6-hydroxy-benzothiophen-3-yl]oxyphenoxy]propoxy]propoxy]propylamino]-1-oxo-isoindolin-2-yl]piperidine-2,6-dione] yielded a DC50 [1] of 1 to 10 nM and a Dmax [1] of 50 to 75%.
`O=C1CCC(N2Cc3cc(N4CCN(C5CCN(CCOc6ccc(Oc7c(-c8ccc(C(F)(F)F)cc8)sc8cc(O)ccc78)cc6)CC5)CC4)ccc3C2=O)C(=O)N1` (centres unmarked) [Compound 192, 3-[5-[4-[1-[2-[4-[6-hydroxy-2-[4-(trifluoromethyl)phenyl]benzothiophen-3-yl]oxyphenoxy]ethyl]-4-piperidyl]piperazin-1-yl]-1-oxo-isoindolin-2-yl]piperidine-2,6-dione] gave a DC50 [1] of 10 to 100 nM, a Dmax [1] of over 75% and an IC50 [2, 3] of 2.9 nM.
Work on `O=C1CCC(N2C(=O)c3ccc(N4CCN(CC5CCN(CCOc6ccc(Oc7c(-c8ccc(Br)cc8)sc8cc(O)ccc78)cc6)CC5)CC4)cc3C2=O)C(=O)N1` (centres unmarked) [Compound 184, 5-[4-[1-[2-[4-[2-(4-bromophenyl)-6-hydroxy-benzothiophen-3-yl]oxyphenoxy]ethyl]-4-piperidylmethyl]piperazin-1-yl]-2-(2,6-dioxo-3-piperidyl)isoindoline-1,3-dione] yielded a DC50 [1] of 10 to 100 nM, a Dmax [1] of over 75% and an IC50 [2, 3] of 13.3 nM.
For `O=C1CCC(N2C(=O)c3ccc(N4CC(N5CCC(Oc6ccc(Oc7c(-c8ccc(Br)cc8)sc8cc(O)ccc78)cc6)CC5)C4)cc3C2=O)C(=O)N1` (centres unmarked) [Compound 213, 5-[3-[4-[4-[2-(4-bromophenyl)-6-hydroxybenzothiophen-3-yl]oxyphenoxy]-1-pipendyl]azetidin-1-yl]2-(2,6-dioxo-3-piperidyl)isoindoline-1,3-dione], the Dmax [1] was under 50% and the IC50 [2, 3] was 11.2 nM.
Work on `O=C1CCC(N2Cc3cc(N4CCN(CC5CCN(c6ccc(Oc7c(-c8ccc(F)cc8)sc8cc(O)ccc78)cn6)CC5)CC4)ccc3C2=O)C(=O)N1` (centres unmarked) [Compound 232, 3-[5-[4-[[1-[5-[2-(4-fluorophenyl)-6-hydroxy-benzothiophen-3-yl]oxy-2-pyridyl]-4-piperidyl]methyl]piperazin-1-yl]-1-oxo-isoindolin-2-yl]piperidine-2,6-dione] yielded a DC50 [1] of under 1 nM, a Dmax [1] of over 75% and an IC50 [2, 3] of 1.6 nM.
`O=C1CCC(N2Cc3cc(N4CCN(CCCOc5ccc(Oc6c(-c7ccc(F)cc7)sc7cc(O)ccc67)cc5)CC4)ccc3C2=O)C(=O)N1` (centres unmarked) [Compound 220, 3-[5-[4-[3-[4-[2(4-fluorophenyl)-6-hydroxybenzothiophen-3-yl]oxyphenoxy]propyl]piperazin-1-yl]-1-oxo-isoindolin-2-yl]piperidine-2,6-dione] showed a DC50 [1] of 1 to 10 nM, a Dmax [1] of 50 to 75% and an IC50 [2, 3] of 1.5 nM.
Compound `O=C1CCC(N2Cc3cc(N4CCN(CC5CCN(c6ccc(Oc7c(-c8ccc(O)cc8)sc8cc(O)ccc78)cc6)CC5)CC4)ccc3C2=O)C(=O)N1` (centres unmarked) [Compound 244, 3-[5-[4-[[1-[4-(6-hydroxy-2-(4-hydroxyphenyl)benzothiophen-3-yl]oxyphenyl]-4-piperidyl]methyl]piperazin-1-yl]-1-oxo-isoindolin-2-yl]piperidine-2,6-dione] has a DC50 [1] of 1 to 10 nM, a Dmax [1] of 50 to 75% and an IC50 [2, 3] of 0.18 nM.
Compound `O=C1CC[C@H](N2Cc3cc(CCN4CCCN(CCCCOc5ccc(Oc6c(-c7ccc(Br)cc7)sc7cc(O)ccc67)cc5)CC4)ccc3C2=O)C(=O)N1` [Compound 182, (3S)-3-[5-[2-[4-[4-[4-[2-(4-bromophenyl)-6-hydroxy-benzothiophen-3-yl]oxyphenoxy]butyl]-1,4-diazepan-1-yl]ethyl]-1-oxo-isoindolin-2-yl]piperidine-2,6-dione] has a DC50 [1] of 1 to 10 nM, a Dmax [1] of over 75% and an IC50 [2, 3] of 1.9 nM.
`O=C1CCC(N2Cc3cc(NCCCN4CCCN(CCOc5ccc(Oc6c(-c7ccc(Br)cc7)sc7cc(O)ccc67)cc5)CC4)ccc3C2=O)C(=O)N1` (centres unmarked) [Compound 74, 3-(5-(3-(4-(2-(4-(2-(4-bromophenyl)-6-hydroxybenzo[b]thiophen-3-yloxy)phenoxy)ethyl)-1,4-diazepan-1-yl)propylamino)-1-oxoisoindolin-2-yl)piperidine-2,6-dione] gave a DC50 [1] of 1 to 10 nM, a Dmax [1] of over 75% and an IC50 [2, 4] of 11 nM.
Compound `COc1ccc(-c2sc3cc(O)ccc3c2Oc2ccc(OCCN3CCN(CCCNc4ccc5c(c4)CN(C4CCC(=O)NC4=O)C5=O)CC3)cc2)cc1` (centres unmarked) [Compound 180, 3-[5-[3-[4-[2-[4-[6-hydroxy-2-(4-methoxyphenyl)benzothiophen-3-yl]oxyphenoxy]ethyl]piperazin-1-yl]propylamino]-1-oxo-isoindolin-2-yl]piperidine-2,6-dione] has a DC50 [1] of under 1 nM, a Dmax [1] of over 75% and an IC50 [2, 3] of 0.22 nM.
`O=C1CCC(N2C(=O)c3ccc(N4CCN(CCCCCOc5ccc(Oc6c(-c7ccc(Br)cc7)sc7cc(O)ccc67)cc5)CC4)cc3C2=O)C(=O)N1` (centres unmarked) [Compound 61, 5-{4-[5-(4-{[2-(4-bromophenyl)-6-hydroxy-1-benzothiophen-3-yl]oxy}phenoxy)pentyl]piperazin-1-yl}-2-(2,6-dioxopiperidin-3-yl)-2,3-dihydro-1H-isoindole-1,3-dione] gave a DC50 [1] of 10 to 100 nM, a Dmax [1] of 50 to 75% and an IC50 [2, 4] of 18.3 nM.
For `O=C1CCC(N2Cc3c(ccc(N4CCN(CC5CCN(CCOc6ccc(Oc7c(-c8ccc(C(F)(F)F)cc8)sc8cc(O)ccc78)cc6)CC5)CC4)c3F)C2=O)C(=O)N1` (centres unmarked) [Compound 201, 3-[4-fluoro-5-[4-[[1-[2-[4-[6-hydroxy-2-[4-(trifluoromethyl)phenyl]benzothiophen-3-yl]oxyphenoxy]ethyl]-4-piperidyl]methyl]piperazin-1-yl]-1-oxo-isoindolin-2-yl]piperidine-2,6-dione], the DC50 [1] was 10 to 100 nM, the Dmax [1] was over 75% and the IC50 [2, 3] was 8.4 nM.
`O=C1CCC(N2Cc3cc(N4CCN(CC5CCN(c6ccc(Oc7c(-c8ccc(Br)cc8)sc8cc(O)ccc78)cn6)CC5)CC4)ccc3C2=O)C(=O)N1` (centres unmarked) [Compound 236, 3-[5-[4-[[1-[5-[2-(4-bromophenyl)-6-hydroxy-benzothiophen-3-yl]oxy-2-pyridyl]-4-piperidyl]methyl]piperazin-1-yl]-1-oxo-isoindolin--2-yl]piperidine-2,6-dione] gave a DC50 [1] of 1 to 10 nM, a Dmax [1] of over 75% and an IC50 [2, 3] of 4.9 nM.
In the case of `O=C1CCC(N2Cc3cc(N4CCN(CCCOc5ccc(Oc6c(-c7ccc(OC(F)(F)F)cc7)sc7cc(O)ccc67)cc5)CC4)ccc3C2=O)C(=O)N1` (centres unmarked) [Compound 217, 3-[5-[4-[3-[4-[6-hydroxy-2-[4-(trifluoromethoxy)phenyl]benzothiophen-3-yl]oxyphenoxy]propyl]piperazin-1-yl]-1-oxo-isoindolin-2-yl]piperidine-2,6-dione], the DC50 [1] is reported as 1 to 10 nM, the Dmax [1] is reported as 50 to 75% and the IC50 [2, 3] is reported as 7.5 nM.
In the case of `O=C1CCC(N2Cc3cc(NCCCOCCOCCOc4ccc(Oc5c(-c6ccc(Br)cc6)sc6cc(O)ccc56)cc4)ccc3C2=O)C(=O)N1` (centres unmarked) [Compound 95, 3-[5-[3-[2-[2-[4[2-(4-bromophenyl)-6-hydroxy-benzothiophen-3-yl]oxyphenoxy]ethoxy]ethoxy]propylamino]-1-oxo-isoindolin-2-yl]piperidine-2,6-dione], the Dmax [1] is reported as under 50%.

Source: patent US11384063B2, “Modulators of estrogen receptor proteolysis and associated methods of use” (Arvinas Operations, Inc., priority 2017, dated 2022)
